Data from the pKa sets of Baltruschat and Czodrowski (2020).

settings: acidic group

Structure (SMILES) | pKa
CC(=O)CC(=O)O | 3.09
NC(=O)c1ccccc1C(=O)O | 3.75
Nc1ccc([N+](=O)[O-])c(B(O)O)c1 | 10
Cc1ccc(S(=O)(=O)Nc2ccccc2)cc1 | 8.46
O=C(O)/C=C/c1ccoc1 | 4.31
CC1(C)NC(C)(C)[N+](O)=C1c1ccccc1 | 2.06
O=C(O)c1c2ccccc2[nH+]c2ccccc12 | 3
Cc1ccc(NC(=S)c2cccc(Br)c2)cc1 | 10.9
[NH3+]CCCCCCCC(=O)O | 4.5
O=C(O)Cc1ccc(Cl)s1 | 3.89
Oc1ccc2ccccc2c1 | 9.6
CC/C(=N/O)C(C)=O | 9.38
O=C(O)c1ccc2ccccc2[nH+]1 | 1.79
NS(=O)(=O)c1ccc(/N=C/c2ccccc2O)cc1 | 6.63
O=C(Cc1ccccc1)c1cc[n+]([CH-]c2cccc([N+](=O)[O-])c2)cc1 | 11.6
O=C(O)[C@@H]1O[C@H](Oc2ccc3[nH+]ccc(O)c3c2)[C@@H](O)[C@H](O)[C@H]1O | 3.15
COc1cc(OC)nc([N-]S(=O)(=O)c2ccc(O)cc2)n1 | 9.05
CCOC(=O)/C(=N\O)C(C)=O | 7.2
CC(C)CCC1=C(O)C(=O)c2ccccc2C1=O | 5.13
[NH3+]c1ccccc1C(=O)O | 2.08
C[NH2+]C(C)C(=O)O (centres undefined) | 2.22
O=c1[nH]c(=S)[nH]c2nc[nH]c12 | 5.88
c1nc(NC2CCCCC2)c2[nH]cnc2n1 | 10.2
O=C(O)c1sccc1[N+](=O)[O-] | 2.68
Oc1ccccc1-c1ccccc1 | 9.99

Structure (SMILES) | pKa
O=C(O)[C@@H]1CC[C@H](C(=O)[O-])[Se]1 | 4.55
C[n+]1c2ccccc2nc2c(O)cccc21 | 4.85
[NH3+]CCCCCCCCCC(=O)O | 4.57
CCOC(=O)CC(C)=O | 10.7
O=C(NO)c1ccccn1 | 8.6
O=S1(=O)N=CNc2ccncc21 | 6.71
Nc1cc[nH+]c2c1ncn2CCOCP(=O)(O)O | 1.11
Oc1cccc2c1Nc1ccccc1N2 | 10.9
OC(c1ccncc1)n1cc[nH+]c1 (centres undefined) | 7.24
Nc1ccc(S(=O)(=O)Nc2cccnn2)cc1 | 7.06
O=C(NO)[C@@H]1[C@H](C(=O)NO)[C@@H]2CC[C@H]1O2 | 9.3
Oc1ccc2ncsc2c1 | 9.21
O=[N+]([O-])c1ccc(O)c(C[NH+]2CCOCC2)c1 | 5.61
O=P(C1CCCCC1)(C1CCCCC1)C1CCCCC1 | 13.7
COc1cccc(O)c1O | 9.28
O=C1C=CC(=O)c2c(O)cccc21 | 8.7
O=C(O)[C@H]1CCCC[C@@H]1O | 4.68
N#CC(O)=C(C#N)C#N | 1.9
CC1C(=O)c2ccccc2C1=O | 6.17
O=[N+]([O-])Cc1ccccc1 | 6.77
Cc1ccc(O)c(C(=O)O)c1 | 3.01
O=C([O-])/C=C/C([O-])=C/C(=O)CC(=O)[O-] | 10.5
Nc1ncnc2[nH]cnc12 | 9.86
O=C1NC(=O)C(c2ccccc2)C1=O (centres undefined) | 3.4
Cc1cc(C)c(C(C)C)cc1O | 10.8

Structure (SMILES) | pKa
Cc1ccc(C(=O)C[n+]2cccc3c4ccccc4ccc32)cc1 | 11.7
O=C([O-])C1(C(=O)O)CC1 | 7.31
CN(C)/C=N/c1ccccc1O | 11
Fc1ccc(NC=S)cc1 | 11.2
C=CCc1c(C)nn(C)c1O | 10.5
COc1cccc(OC)c1-c1nc2cnccc2[nH]1 | 10.9
O=C(O)c1cccc(Cl)c1 | 3.8
CO/C([O-])=N/c1ncnc2nc[nH]c12 | 12.1
O=C(O)CCC(=O)NOCc1ccccc1 | 4.6
Cn1c(CO)nc2ccccc21 | 15.8
CC1=NS(=O)(=O)c2cccnc2N1 | 7.64
Cc1nnc(C)n1O | 6.5
O=C(O)CSC(c1ccccc1)(c1ccccc1)c1ccccc1 | 4.32
O=S(=O)(Nc1ccccc1)C(F)(F)F | 4.85
O=C(O)C1Cc2ccccc2O1 (centres undefined) | 3.25
O=C(/C=N/O)/C=N/O | 7.65
N#CC(CCC(=O)O)c1ccccc1 (centres undefined) | 4.4
CCOc1cc(C)nc(-n2nc(C)cc2O)n1 | 7.35
O=C1CCCC2CCCC(=O)C12 (centres undefined) | 11.1
O=C(O)c1cccs1 | 3.46
Cc1nn(-c2ccccc2)c(O)c1C | 11.3
C[NH+](C)CCCCCCCNC(=O)/C=N/O | 8.98
[O-]c1cccc2c1-c1c(O)cccc1-2 | 11
CC(C)=C=CC(C)(C)C(=O)O | 4.7

same assay, conditions: basic group

Structure (SMILES) | pKa
CCN1CCCC1C (centres undefined) | 10.6
COc1ccc2nc3c(c(N4CCOCC4)c2c1)CCC3 | 7.14
O=C1CCc2ccccc2C1 | 12.8
CCOc1ccc2[nH]c(CC(C)C)nc2c1 | 6.07
CC(C)(N)c1ccccc1 | 10.4
Cc1cc(N)cc(C)c1[N+](=O)[O-] | 2.56
C[NH+](C)C[C@H]1[C@@H]2CC[C@@](C)([C@H]1N)C2(C)C | 6.59
O=C([O-])c1cc2cc(Cn3ccnc3)ccc2s1 | 6.77
CCCNCCN | 10.3
CC(Cc1ccccc1)N(C)CCC#N (centres undefined) | 6.95
CC(C)(C)N1NC2CCC1C21CC1 (centres undefined) | 9.33
Cc1ccccc1NC1CCCC1 | 5.07
Cc1ccc2c(c1)N1CC[NH+]2CC1 | 2.4
CC(=O)c1cccnc1 | 3.32
CC(=O)SCCN(C)C | 8.27
